Laboratory results published in PubChem BioAssay (NCI).
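Interpolation was linear, between the two tested concentrations surrounding the appropriate level; five concentrations were tested over 48 hours in 96-well plates. TGI is the concentration that stops growth completely.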

Tests used:
Experiment in all cases: NCI-60 cell line screen, 48 h
CAKI-1 renal = tested on: CAKI-1 renal
SF-539 CNS = tested on: SF-539 CNS
SK-MEL-28 melanoma = tested on: SK-MEL-28 melanoma
MALME-3M melanoma = tested on: MALME-3M melanoma
UO-31 renal = tested on: UO-31 renal
COLO 205 colon = tested on: COLO 205 colon
M14 melanoma = tested on: M14 melanoma
SK-MEL-5 melanoma = tested on: SK-MEL-5 melanoma
OVCAR-4 ovarian = tested on: OVCAR-4 ovarian
SNB-19 CNS = tested on: SNB-19 CNS
NCI/ADR-RES ovarian = tested on: NCI/ADR-RES ovarian
SK-OV-3 ovarian = tested on: SK-OV-3 ovarian
UACC-257 melanoma = tested on: UACC-257 melanoma
SNB-75 CNS = tested on: SNB-75 CNS
SW-620 colon = tested on: SW-620 colon
NCI-H460 lung = tested on: NCI-H460 lung
MCF7 breast = tested on: MCF7 breast
HCT-116 colon = tested on: HCT-116 colon
SF-295 CNS = tested on: SF-295 CNS
OVCAR-8 ovarian = tested on: OVCAR-8 ovarian

SMILES	TGI (CAKI-1 renal) [µM]	TGI (SF-539 CNS) [µM]	TGI (SK-MEL-28 melanoma) [µM]	TGI (MALME-3M melanoma) [µM]	TGI (UO-31 renal) [µM]	TGI (COLO 205 colon) [µM]	TGI (M14 melanoma) [µM]	TGI (SK-MEL-5 melanoma) [µM]	TGI (OVCAR-4 ovarian) [µM]	TGI (SNB-19 CNS) [µM]	TGI (NCI/ADR-RES ovarian) [µM]	TGI (SK-OV-3 ovarian) [µM]	TGI (UACC-257 melanoma) [µM]	TGI (SNB-75 CNS) [µM]	TGI (SW-620 colon) [µM]	TGI (NCI-H460 lung) [µM]	TGI (MCF7 breast) [µM]	TGI (HCT-116 colon) [µM]	TGI (SF-295 CNS) [µM]	TGI (OVCAR-8 ovarian) [µM]
COC1OC(COC(=O)NCCCCC(=O)C(F)(F)F)C(O)C(O)C1O (stereo not drawn)	> 100	> 100	> 100	> 100	> 100	> 100	> 100	> 100	> 100	> 100	> 100	> 100	> 100	> 100	> 100	> 100	> 100	> 100	> 100	–
CSCC[C@H]1C(=O)N=C(N)N1C(=O)OCc1ccccc1	44.3	–	96.8	> 100	> 100	39.7	–	> 100	> 100	> 100	> 100	–	> 100	> 100	33.9	> 100	> 100	37.7	> 100	> 100
CCOC(=O)N1CCN(C(=O)Nc2cccc3ccccc23)CC1	> 10	> 10	> 10	> 10	> 10	> 10	> 10	> 10	> 10	> 10	> 10	> 10	–	> 10	> 10	> 10	> 10	> 10	> 10	> 10
C=CC12CN(C)C3C4COC(CC41)C1(C(=O)Nc4ccccc41)C32 (stereo not drawn)	> 200	> 200	> 200	> 200	> 200	> 200	–	> 200	> 200	> 200	> 200	> 82.4	> 200	> 200	> 200	> 200	> 200	> 200	> 200	> 200
CC(C)(C)OC(=O)CN1CCNCCN(CC(=O)OC(C)(C)C)CC1	> 100	> 100	–	> 100	> 100	> 100	> 100	> 100	> 100	> 100	> 100	> 100	> 100	68.7	–	> 100	> 100	> 100	> 100	> 100
O=C1CC(CC(OCc2ccccc2)C(COCc2ccccc2)OCc2ccccc2)CC(=O)N1 (stereo not drawn)	76.3	> 100	> 100	45.8	58.5	39.6	> 100	30.9	> 100	–	97.9	–	> 100	> 100	> 100	> 100	> 100	> 100	> 100	> 100
Cc1ccc(-c2n[nH]c(=O)[nH]2)cc1	> 100	> 100	> 100	> 100	> 100	> 100	> 100	> 100	> 100	> 100	> 100	–	98.7	> 100	> 100	> 100	> 100	> 100	> 100	> 100
CCOC(=O)CN1CCSC1=NC#N	> 100	> 100	> 100	> 100	> 100	> 100	–	> 100	> 100	> 100	> 100	> 100	> 100	> 100	> 100	> 31.6	> 100	> 100	> 42.7	> 100
O=[N+]([O-])/C(C(Cl)=C(Cl)Cl)=C1/OCCS1	72.7	42.9	96.5	40.8	40.2	36.8	> 100	34	> 100	> 100	33.6	> 100	67.3	50.6	–	71.4	> 100	35.2	90.5	34.4
Cn1c(COC(=O)NC2CCCCC2)c(COC(=O)NC2CCCCC2)c2ccc3cc(Cl)c(Cl)cc3c21	10.4	42.1	50.2	25.9	66.7	24.6	36.7	26.4	–	26.1	> 100	> 100	29	27.8	32.8	17.3	16.9	23.1	> 100	> 100
CC1=CCS(=O)(=O)C1C(O)C1=C(C)CCCC1(C)C (stereo not drawn)	> 100	> 100	> 100	> 100	> 100	> 100	> 100	> 100	> 100	> 100	> 100	> 100	> 100	> 100	> 100	–	> 100	> 100	> 100	> 100
COc1cc(/C=C/C2=NN(c3cccc(S(=O)(=O)O)c3)C3(C2)C(Cl)C(=O)N3c2nc3ccccc3s2)ccc1O (stereo not drawn)	33	46	76.6	34.5	33.6	40.4	> 100	85.2	30.4	> 100	99.4	–	42.6	60	48	> 100	> 100	39.2	–	40.8
